Results as given in ChEMBL document CHEMBL1909046, “DrugMatrix in vitro pharmacology data”.
Where a SMILES comes first, the peptide text is derived from it. Bridges are numbered along the chain shown (N, C = ends). [ ]: non-standard residue; d: D form. The star is where a group is joined. Ileψ(thiazoline)Cys = CC[C@H](C)[C@H](N)C1=N[C@H](C(=O)*)CS1; dOrn = NCCC[C@@H](N)C(=O)O

Assays:
[1] = target: Beta-2 adrenergic receptor (Homo sapiens, UniProt P07550); test: DRUGMATRIX: Adrenergic beta2 radioligand binding (ligand: [3H] CGP-12177); assay type: cell membranes, Membrane; conditions: cho; Not Active = under 50% inhibition at 10 µM
[2] = DRUGMATRIX: Tumor Necrosis Factor (TNF), Non-Selective radioligand binding (ligand: [125I] TNF-alpha); assay type: cell membranes, Membrane; conditions: u-937; Not Active = under 50% inhibition at 10 µM
[3] = target: T1, Vasoactive intestinal polypeptide receptor 1 (Homo sapiens, UniProt P32241); assay type: cell membranes, Membrane; conditions: ht-29; further: in other assays of this panel Not Active means under 50% inhibition at 10 µM
T1 sequence (P32241 whole entry): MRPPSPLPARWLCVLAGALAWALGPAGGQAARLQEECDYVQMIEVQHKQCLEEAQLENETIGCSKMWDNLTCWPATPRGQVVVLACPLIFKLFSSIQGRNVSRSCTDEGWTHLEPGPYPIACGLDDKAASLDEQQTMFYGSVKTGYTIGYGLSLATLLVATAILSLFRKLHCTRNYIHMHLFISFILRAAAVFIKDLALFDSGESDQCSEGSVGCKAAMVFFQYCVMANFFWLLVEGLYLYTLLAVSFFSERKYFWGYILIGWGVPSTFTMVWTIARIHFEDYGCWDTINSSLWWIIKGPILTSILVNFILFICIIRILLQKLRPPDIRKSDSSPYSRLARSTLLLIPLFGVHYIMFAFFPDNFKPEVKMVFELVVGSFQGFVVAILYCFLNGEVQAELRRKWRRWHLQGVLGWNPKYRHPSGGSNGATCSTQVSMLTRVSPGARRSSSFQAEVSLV

[4] = target: T2, Cholecystokinin receptor type A (Homo sapiens, UniProt P32238); assay type: cell membranes, Membrane; conditions: 1321-n1; further: in other assays of this panel Not Active means under 50% inhibition at 10 µM
T2 sequence (P32238 whole entry): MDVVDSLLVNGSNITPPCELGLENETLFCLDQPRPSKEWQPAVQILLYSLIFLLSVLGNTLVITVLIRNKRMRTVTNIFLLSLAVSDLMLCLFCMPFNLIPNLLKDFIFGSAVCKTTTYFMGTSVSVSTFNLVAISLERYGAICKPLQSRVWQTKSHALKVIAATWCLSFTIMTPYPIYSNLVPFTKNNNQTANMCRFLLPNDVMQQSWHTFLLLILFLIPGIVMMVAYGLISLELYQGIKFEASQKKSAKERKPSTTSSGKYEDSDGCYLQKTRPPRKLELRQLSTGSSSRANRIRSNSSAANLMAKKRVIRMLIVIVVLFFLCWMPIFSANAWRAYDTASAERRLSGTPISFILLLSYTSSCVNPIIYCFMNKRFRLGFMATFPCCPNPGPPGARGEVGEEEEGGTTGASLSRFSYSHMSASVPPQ

[5] = DRUGMATRIX: GABAA, Muscimol, Central radioligand binding (ligand: [3H] Muscimol); assay type: cell membranes, Rattus norvegicus, Wistar, Brain, Membrane; conditions: Not Active = under 50% inhibition at 10 µM
Melanocortin receptor 5 = Melanocortin receptor 5 (Homo sapiens, UniProt P33032); assay type: cell membranes, HEK293, Membrane; conditions: hek293; further: in other assays of this panel Not Active means under 50% inhibition at 10 µM
[6] = target: T3, Amine oxidase [flavin-containing] A (Homo sapiens, UniProt P21397); test: DRUGMATRIX: Monoamine Oxidase MAO-A enzyme inhibition (substrate: Kynuramine); design: species or system BTI-TN-5B1-4; conditions: bti-tn-5b1-4; Not Active = under 50% inhibition at 10 µM
T3 sequence (P21397 whole entry): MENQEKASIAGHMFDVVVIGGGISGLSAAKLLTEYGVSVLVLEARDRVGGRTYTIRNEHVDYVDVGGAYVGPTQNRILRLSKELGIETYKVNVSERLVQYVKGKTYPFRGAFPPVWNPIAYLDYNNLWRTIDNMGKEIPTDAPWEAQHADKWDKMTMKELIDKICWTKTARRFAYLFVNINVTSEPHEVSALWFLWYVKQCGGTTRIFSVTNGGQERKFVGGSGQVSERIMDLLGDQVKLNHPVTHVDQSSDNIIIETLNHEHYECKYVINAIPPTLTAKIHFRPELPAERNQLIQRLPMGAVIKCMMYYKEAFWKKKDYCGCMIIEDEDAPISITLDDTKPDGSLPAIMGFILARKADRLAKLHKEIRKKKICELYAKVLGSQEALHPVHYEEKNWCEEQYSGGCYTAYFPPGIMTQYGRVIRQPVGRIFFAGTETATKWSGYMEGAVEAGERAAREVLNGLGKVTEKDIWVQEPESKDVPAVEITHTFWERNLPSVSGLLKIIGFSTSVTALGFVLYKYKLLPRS

[7] = target: T4, Neuropeptide Y receptor type 1 (Homo sapiens, UniProt P25929); assay type: cell membranes, Membrane; conditions: sk-n-mc; further: in other assays of this panel Not Active means under 50% inhibition at 10 µM
T4 sequence (P25929 whole entry): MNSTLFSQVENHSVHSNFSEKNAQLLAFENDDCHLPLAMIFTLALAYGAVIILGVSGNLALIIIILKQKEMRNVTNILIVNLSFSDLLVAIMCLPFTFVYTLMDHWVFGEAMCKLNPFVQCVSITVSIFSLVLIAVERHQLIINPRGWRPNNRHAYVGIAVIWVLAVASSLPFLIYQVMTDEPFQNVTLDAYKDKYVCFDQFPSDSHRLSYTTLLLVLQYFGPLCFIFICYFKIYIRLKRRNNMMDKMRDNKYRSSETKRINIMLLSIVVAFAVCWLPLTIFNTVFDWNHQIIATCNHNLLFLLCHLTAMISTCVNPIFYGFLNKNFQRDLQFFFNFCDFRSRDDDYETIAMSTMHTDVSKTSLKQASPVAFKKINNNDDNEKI

Progesterone receptor = target: T5, Progesterone receptor (Bos taurus, UniProt Q690N0); test: DRUGMATRIX: Progesterone radioligand binding (ligand: [3H] R-5020); assay type: tissue-based, Uterus; conditions: Not Active = under 50% inhibition at 10 µM
T5 sequence (Q690N0 whole entry): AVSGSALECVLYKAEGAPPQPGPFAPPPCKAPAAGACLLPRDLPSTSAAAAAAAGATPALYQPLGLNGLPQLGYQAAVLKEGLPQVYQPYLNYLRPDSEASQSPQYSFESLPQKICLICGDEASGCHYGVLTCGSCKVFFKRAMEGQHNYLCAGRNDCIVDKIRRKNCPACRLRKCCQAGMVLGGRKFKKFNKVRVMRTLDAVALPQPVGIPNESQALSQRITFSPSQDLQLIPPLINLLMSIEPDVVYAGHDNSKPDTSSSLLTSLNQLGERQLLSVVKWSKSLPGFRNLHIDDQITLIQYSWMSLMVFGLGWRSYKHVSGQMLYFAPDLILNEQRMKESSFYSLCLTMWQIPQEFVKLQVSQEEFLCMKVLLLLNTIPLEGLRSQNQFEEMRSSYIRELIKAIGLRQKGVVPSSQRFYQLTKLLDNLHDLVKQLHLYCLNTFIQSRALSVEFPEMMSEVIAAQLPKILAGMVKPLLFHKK

[8] = target: Protein phosphatase 3 catalytic subunit alpha (Homo sapiens, UniProt Q08209); design: species or system Escherichia coli
Cytochrome P450 2C9 = Cytochrome P450 2C9 (Homo sapiens, UniProt P11712); conditions: bti-tn-5b1-4; further: in other assays of this panel Not Active means under 50% inhibition at 10 µM
Cytochrome P450 2C9, sequence (P11712 whole entry): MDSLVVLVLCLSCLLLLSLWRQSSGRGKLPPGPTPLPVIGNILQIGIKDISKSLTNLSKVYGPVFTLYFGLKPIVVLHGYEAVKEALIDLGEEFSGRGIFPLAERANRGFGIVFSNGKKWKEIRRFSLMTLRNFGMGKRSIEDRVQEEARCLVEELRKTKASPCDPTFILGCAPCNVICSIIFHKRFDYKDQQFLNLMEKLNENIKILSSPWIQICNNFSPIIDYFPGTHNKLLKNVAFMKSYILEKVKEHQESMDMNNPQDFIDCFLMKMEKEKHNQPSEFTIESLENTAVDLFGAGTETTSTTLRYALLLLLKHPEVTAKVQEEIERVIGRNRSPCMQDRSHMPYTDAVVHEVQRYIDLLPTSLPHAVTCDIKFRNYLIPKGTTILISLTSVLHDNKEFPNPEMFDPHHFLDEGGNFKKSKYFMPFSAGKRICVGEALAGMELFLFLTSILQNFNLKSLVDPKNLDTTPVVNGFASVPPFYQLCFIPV

Melanocortin receptor 5, sequence (P33032 whole entry): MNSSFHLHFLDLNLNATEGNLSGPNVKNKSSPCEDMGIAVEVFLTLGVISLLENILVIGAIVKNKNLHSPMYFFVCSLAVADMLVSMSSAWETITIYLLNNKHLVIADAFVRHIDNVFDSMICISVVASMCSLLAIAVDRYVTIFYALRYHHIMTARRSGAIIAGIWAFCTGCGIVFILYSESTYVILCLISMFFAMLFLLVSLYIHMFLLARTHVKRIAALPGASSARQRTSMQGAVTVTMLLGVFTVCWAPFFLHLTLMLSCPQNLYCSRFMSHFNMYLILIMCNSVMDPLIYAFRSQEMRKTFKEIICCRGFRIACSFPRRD
Beta-2 adrenergic receptor, sequence (P07550 whole entry): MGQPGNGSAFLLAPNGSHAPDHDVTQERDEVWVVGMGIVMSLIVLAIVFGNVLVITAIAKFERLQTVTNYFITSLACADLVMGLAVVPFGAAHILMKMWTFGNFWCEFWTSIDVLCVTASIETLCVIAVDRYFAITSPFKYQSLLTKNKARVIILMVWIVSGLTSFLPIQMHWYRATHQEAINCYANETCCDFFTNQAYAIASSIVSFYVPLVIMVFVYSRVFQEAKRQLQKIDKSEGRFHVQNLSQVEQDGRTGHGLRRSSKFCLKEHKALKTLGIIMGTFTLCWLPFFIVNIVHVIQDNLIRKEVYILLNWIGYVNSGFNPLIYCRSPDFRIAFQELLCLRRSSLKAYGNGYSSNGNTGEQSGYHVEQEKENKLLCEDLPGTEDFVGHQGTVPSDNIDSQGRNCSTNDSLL

Oc1cccc2cccnc12 [OXYQUINOLINE]
Not Active: IC50 [1] | IC50 [2] | Ki [2] | IC50 [3] | IC50 [4] | IC50 [5] | Ki [5] | IC50 (Melanocortin receptor 5) | IC50 [6] | IC50 [7] | IC50 (Progesterone receptor) | IC50 [8]

O=P1(NCCCl)OCCCN1CCCl (stereo unspecified) [IFOSFAMIDE]
Not Active: IC50 [1] | IC50 [2] | Ki [2] | IC50 [3] | IC50 [4] | IC50 [5] | Ki [5] | IC50 (Melanocortin receptor 5) | IC50 [6] | IC50 [7] | IC50 (Progesterone receptor) | IC50 [8]

CC(C)NC[C@H](O)COc1cccc2[nH]ccc12
Not Active: IC50 [2] | Ki [2] | IC50 [3] | IC50 [4] | IC50 [5] | Ki [5] | IC50 (Melanocortin receptor 5) | IC50 [6] | IC50 [7] | IC50 [8]

O=C1CCc2cc(OCCCCc3nnnn3C3CCCCC3)ccc2N1 [CILOSTAZOL]
Not Active: IC50 [1] | IC50 [2] | Ki [2] | IC50 [3] | IC50 [4] | IC50 [5] | Ki [5] | IC50 (Melanocortin receptor 5) | IC50 [6] | IC50 [7] | IC50 (Progesterone receptor) | IC50 [8]

NCC(=O)O [GLYCINE]
Not Active: IC50 [1] | IC50 [2] | Ki [2] | IC50 [3] | IC50 [4] | IC50 [5] | Ki [5] | IC50 (Melanocortin receptor 5) | IC50 [6] | IC50 [7] | IC50 (Progesterone receptor) | IC50 [8]

CC(C)n1c(/C=C/C(O)CC(O)CC(=O)O)c(-c2ccc(F)cc2)c2ccccc21 (stereo unspecified) [FLUVASTATIN]
Not Active: IC50 [1] | IC50 [2] | Ki [2] | IC50 [3] | IC50 [4] | IC50 [5] | Ki [5] | IC50 (Melanocortin receptor 5) | IC50 [6] | IC50 [7] | IC50 (Progesterone receptor) | IC50 [8]

CN1C[C@H](C(=O)N[C@]2(C)O[C@@]3(O)[C@@H]4CCCN4C(=O)[C@H](Cc4ccccc4)N3C2=O)C=C2c3cccc4[nH]cc(c34)C[C@H]21 [ERGOTAMINE]
Not Active: IC50 [2] | Ki [2] | IC50 [3] | IC50 [4] | IC50 [5] | Ki [5] | IC50 (Melanocortin receptor 5) | IC50 [6] | IC50 [7] | IC50 (Progesterone receptor) | IC50 [8] | IC50 (Cytochrome P450 2C9) | Ki (Cytochrome P450 2C9)

CCCCOC(=O)c1ccc(N)cc1 [BUTAMBEN]
Not Active: IC50 [1] | IC50 [2] | Ki [2] | IC50 [3] | IC50 [4] | IC50 [5] | Ki [5] | IC50 (Melanocortin receptor 5) | IC50 [6] | IC50 [7] | IC50 (Progesterone receptor) | IC50 [8]

O=C(O)c1cn(C2CC2)c2cc(N3CCNCC3)c(F)cc2c1=O [CIPROFLOXACIN]
Not Active: IC50 [1] | IC50 [2] | Ki [2] | IC50 [3] | IC50 [4] | IC50 [5] | Ki [5] | IC50 (Melanocortin receptor 5) | IC50 [6] | IC50 [7] | IC50 (Progesterone receptor) | IC50 [8]

O=C1OCCN1/N=C/c1ccc([N+](=O)[O-])o1 [FURAZOLIDONE]
Not Active: IC50 [1] | IC50 [2] | Ki [2] | IC50 [3] | IC50 [4] | IC50 [5] | Ki [5] | IC50 (Melanocortin receptor 5) | IC50 [6] | IC50 [7] | IC50 (Progesterone receptor) | IC50 [8]

CC[C@H](C)[C@H](N)C1=N[C@H](C(=O)N[C@@H](CC(C)C)C(=O)N[C@H](CCC(=O)O)C(=O)N[C@H](C(=O)N[C@H]2CCCCNC(=O)[C@H](CC(N)=O)NC(=O)[C@@H](CC(=O)O)NC(=O)[C@H](Cc3cnc[nH]3)NC(=O)[C@@H](Cc3ccccc3)NC(=O)[C@H]([C@@H](C)CC)NC(=O)[C@@H](CCCN)NC2=O)[C@@H](C)CC)CS1 [BACITRACIN] ({Ileψ(thiazoline)Cys}-L[dE]IK[dOrn]I[dF]H[dD]N; lactam 4-C)
Not Active: IC50 [1] | IC50 [2] | Ki [2] | IC50 [3] | IC50 [4] | IC50 [5] | Ki [5] | IC50 (Melanocortin receptor 5) | IC50 [6] | IC50 [7] | IC50 (Progesterone receptor) | IC50 [8]
